The source made the active and inactive calls. Bounds are passed on as bounds.

Assay [1] can be described thus: Luminescence Cell-Based Dose Retest to Confirm Inhibitors of Cancer Stem Cells. [Related pubchem assays (depositor defined):AID2717, AID2721]. The assay is classed as functional. To be noted: Homo sapiens.
A short description of assay [2]: NIH-3T3 fibroblast cytotoxicity, dose response, cytotoxicity control, cell-based, fluorescence, Alamar Blue, secondary assay (AID 2327).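 Further: NIH-3T3 mouse fibroblasts cultured with fluconazole at 8 µg/mL.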 It counts as functional.
The nature of assay [3]: C. albicans growth with fluconazole, confirmation, fluorescence, retest (AID 2467). It counts as functional, cell-based.
A further assay has as its target Cytochrome P450 2D6 (Homo sapiens, UniProt P10635).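 Further: CYP2D6 member of a cytochrome P450 panel assay.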
The target in another assay is T1, Cytochrome P450 1A2 (Homo sapiens, UniProt P05177).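 Further: PubChem cytochrome P450 panel assay, CYP1A2 panel member.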
T1 sequence (P05177 whole entry): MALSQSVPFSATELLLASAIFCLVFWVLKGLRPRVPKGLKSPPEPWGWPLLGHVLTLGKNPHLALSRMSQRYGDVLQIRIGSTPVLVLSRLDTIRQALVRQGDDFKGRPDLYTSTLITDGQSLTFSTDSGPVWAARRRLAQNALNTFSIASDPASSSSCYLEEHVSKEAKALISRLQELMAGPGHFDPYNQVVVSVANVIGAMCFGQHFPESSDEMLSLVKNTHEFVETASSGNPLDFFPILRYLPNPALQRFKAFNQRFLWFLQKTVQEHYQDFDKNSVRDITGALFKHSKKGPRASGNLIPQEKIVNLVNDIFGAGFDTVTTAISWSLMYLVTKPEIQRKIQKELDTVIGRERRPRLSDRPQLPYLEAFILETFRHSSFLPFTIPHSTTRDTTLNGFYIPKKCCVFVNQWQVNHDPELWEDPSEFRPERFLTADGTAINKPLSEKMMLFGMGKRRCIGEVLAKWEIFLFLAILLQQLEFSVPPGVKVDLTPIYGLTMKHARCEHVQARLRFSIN

For assay [4], the target named is T2, Corticotropin-releasing factor receptor 2/Corticotropin-releasing factor-binding protein (Homo sapiens, UniProt P24387+Q13324).
T2 sequence (Q13324 whole entry): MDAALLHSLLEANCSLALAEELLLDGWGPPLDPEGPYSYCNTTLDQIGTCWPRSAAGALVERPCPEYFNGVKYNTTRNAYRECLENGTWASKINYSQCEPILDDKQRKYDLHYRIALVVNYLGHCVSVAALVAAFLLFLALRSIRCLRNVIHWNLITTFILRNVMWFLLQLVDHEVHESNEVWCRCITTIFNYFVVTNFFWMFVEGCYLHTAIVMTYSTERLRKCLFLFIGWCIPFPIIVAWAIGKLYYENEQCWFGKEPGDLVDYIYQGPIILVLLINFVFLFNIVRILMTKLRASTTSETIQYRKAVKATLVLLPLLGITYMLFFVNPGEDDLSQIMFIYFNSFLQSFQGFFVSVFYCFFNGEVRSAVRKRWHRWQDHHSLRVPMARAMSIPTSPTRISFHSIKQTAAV
T2 sequence (P24387 whole entry): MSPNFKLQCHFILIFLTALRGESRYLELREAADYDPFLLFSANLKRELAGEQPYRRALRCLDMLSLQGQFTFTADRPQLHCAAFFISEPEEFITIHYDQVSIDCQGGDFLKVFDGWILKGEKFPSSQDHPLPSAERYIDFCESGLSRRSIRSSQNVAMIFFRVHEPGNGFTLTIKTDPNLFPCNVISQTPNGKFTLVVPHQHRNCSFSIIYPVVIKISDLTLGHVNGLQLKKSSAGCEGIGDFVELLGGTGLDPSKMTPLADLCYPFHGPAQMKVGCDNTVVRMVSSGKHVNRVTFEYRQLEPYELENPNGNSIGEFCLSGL
Description: activators of CRF receptor 2 with binding protein – uHTS hits, confirmation (AID 602473). The assay is classed as functional. To be noted: read-out: EC50_Mean.

For assay [5], the target named is T2, Corticotropin-releasing factor receptor 2/Corticotropin-releasing factor-binding protein. Kind of assay: Dose Response confirmation of uHTS hits for small molecule antagonists of the CRF-binding protein and CRF-R2 receptor complex. It counts as functional. To be noted: read-out: IC50_Mean.
A further assay addresses T3, Streptokinase A (Streptococcus pyogenes serotype M1, UniProt P10520).
T3 sequence (P10520 whole entry): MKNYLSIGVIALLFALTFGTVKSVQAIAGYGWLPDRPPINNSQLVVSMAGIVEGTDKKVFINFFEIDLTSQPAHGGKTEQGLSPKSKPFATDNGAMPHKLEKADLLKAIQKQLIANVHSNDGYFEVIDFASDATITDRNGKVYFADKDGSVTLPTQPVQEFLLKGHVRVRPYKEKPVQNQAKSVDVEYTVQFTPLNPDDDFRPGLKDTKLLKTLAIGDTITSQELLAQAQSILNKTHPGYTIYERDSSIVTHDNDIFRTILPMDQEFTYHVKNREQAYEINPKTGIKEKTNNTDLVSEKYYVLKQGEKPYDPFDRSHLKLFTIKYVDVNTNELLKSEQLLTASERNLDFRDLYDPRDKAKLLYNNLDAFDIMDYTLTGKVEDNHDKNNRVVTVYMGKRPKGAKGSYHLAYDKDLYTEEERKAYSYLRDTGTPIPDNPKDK
Description: S. pyogenes streptokinase expression inhibitors, potency, dose response, plasminogen activation absorbance, OD405 (AID 1914).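 Further: secreted streptokinase activity via plasminogen activation per viability signal from cell pellet.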 The assay is classed as functional, Streptococcus pyogenes M1 GAS.

Another assay concerns Streptococcus. Description: Group A Streptococcus viability loss, dose response, counter-screen for streptokinase expression inhibitor project, luminescence, BacTiterGlo (AID 1915).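 Further: potency for reduction of bacterial viability or growth.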 It counts as functional, organism-based. A general note: The purpose of a counterscreen is to sort out artefacts and off-target activity.
Assay [6] in a line: cytotoxicity toward NIH3T3 fibroblasts, dose response, counter-screen, cell-based, ATP luminescence, mouse fibroblasts (AID 2010).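 Further: cells exposed to compound for about 90 hours before reading.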 The assay is classed as functional.
Assay [7] is described as follows: inhibitors of intracellular T. cruzi replication, confirmation, NIH3T3 host cells, beta-gal luminescence (AID 2044).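 Further: intracellular parasites grown in NIH/3T3 mouse fibroblasts as host cells; luminescent beta-galactosidase reporter signal from transgenic T. cruzi replicating inside host cells; inhibitors lower the luminescence signal.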 It counts as functional, cell-based.
Assay [8] has as its system Streptococcus sp. 'group A'. Kind of assay: growth inhibition of control SK(-) GAS strain, dose response, counter-screen for streptokinase expression inhibitor project, luminescence, kanamycin, BacTiterGlo, confirmation (AID 1900). The assay is classed as functional, organism-based.
The target in a further assay is Cytochrome P450 3A4 (Homo sapiens, UniProt P08684).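 Further: CYP3A4 tested as one member of a cytochrome P450 panel screen.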
Chain of Cytochrome P450 3A4 (P08684 whole entry): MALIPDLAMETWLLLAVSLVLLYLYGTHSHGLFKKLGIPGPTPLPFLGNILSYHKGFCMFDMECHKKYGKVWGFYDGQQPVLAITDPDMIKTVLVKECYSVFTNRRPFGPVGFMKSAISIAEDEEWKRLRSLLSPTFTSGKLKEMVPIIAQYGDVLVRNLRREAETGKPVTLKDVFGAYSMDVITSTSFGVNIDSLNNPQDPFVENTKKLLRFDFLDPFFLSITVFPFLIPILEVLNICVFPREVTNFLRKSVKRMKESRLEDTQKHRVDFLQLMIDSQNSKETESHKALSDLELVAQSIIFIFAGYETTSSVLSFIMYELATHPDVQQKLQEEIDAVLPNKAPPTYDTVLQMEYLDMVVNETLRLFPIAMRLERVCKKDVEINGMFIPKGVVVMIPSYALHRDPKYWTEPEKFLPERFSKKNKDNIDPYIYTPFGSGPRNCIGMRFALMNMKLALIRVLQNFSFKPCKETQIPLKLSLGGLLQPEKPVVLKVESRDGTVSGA
For the next assay, the target named is Cytochrome P450 2C9 (Homo sapiens, UniProt P11712).
Chain of Cytochrome P450 2C9 (P11712 whole entry): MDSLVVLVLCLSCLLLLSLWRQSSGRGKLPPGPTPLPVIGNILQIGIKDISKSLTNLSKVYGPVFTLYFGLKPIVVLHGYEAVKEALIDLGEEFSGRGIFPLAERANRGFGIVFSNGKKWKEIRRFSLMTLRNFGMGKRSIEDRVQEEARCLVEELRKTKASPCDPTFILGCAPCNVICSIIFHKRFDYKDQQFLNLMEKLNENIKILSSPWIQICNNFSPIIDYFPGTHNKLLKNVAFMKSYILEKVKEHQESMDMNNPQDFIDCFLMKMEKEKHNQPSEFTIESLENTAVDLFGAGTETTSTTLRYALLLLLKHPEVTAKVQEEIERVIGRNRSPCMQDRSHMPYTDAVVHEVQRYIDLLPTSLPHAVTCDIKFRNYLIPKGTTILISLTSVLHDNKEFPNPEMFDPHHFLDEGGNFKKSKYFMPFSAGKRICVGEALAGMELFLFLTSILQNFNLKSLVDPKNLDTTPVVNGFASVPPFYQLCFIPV

Chain of Cytochrome P450 2D6 (P10635 whole entry): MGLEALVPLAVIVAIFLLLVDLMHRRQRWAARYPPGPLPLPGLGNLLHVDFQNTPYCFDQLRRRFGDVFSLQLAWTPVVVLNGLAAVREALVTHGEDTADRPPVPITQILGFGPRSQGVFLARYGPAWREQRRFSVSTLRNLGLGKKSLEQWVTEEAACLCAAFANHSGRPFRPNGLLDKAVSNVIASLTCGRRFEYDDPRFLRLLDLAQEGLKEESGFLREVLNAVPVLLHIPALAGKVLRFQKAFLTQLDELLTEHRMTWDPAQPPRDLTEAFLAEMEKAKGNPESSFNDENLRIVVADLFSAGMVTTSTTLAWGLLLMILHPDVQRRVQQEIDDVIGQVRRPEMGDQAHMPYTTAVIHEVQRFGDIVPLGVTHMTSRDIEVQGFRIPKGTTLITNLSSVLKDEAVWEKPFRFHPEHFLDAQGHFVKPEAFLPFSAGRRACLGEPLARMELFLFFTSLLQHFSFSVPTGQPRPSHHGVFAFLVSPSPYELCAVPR

A word on the AC50: it is the midpoint of the concentration-response curve, whichever way the signal moves. Consider `COc1ccc(/C=N/NC(=S)Nc2ccccc2[N+](=O)[O-])cc1O`, for which the AC50 in assay [1] was 4.87 µM (active).

With `Cc1nc2ccc(NC(=O)COc3ccccc3)cc2s1`, the EC50 was > 150 µM (inactive) in assay [2] and > 38 µM (not active) in assay [3].

In the case of `c1cc(-c2sc(-c3ccncc3)c(-c3ccncc3)c2-c2ccncc2)ccn1`, the AC50 at Cytochrome P450 2D6 and on Cytochrome P450 1A2 was 3.16 µM (inconclusive) in each case.

As for `COc1cccc(OC)c1C(=O)NC(=S)N1CCN(c2ccc(C(F)(F)F)cc2[N+](=O)[O-])CC1`, the AC50 on Cytochrome P450 2D6 is 20 µM (inconclusive).

In the case of `CCOC(=O)C1CCN(CCC(=O)Nc2ccc(F)cc2)CC1`, the figures for the EC50 in assay [2] and in assay [3] were > 150 µM (inactive) and 5.18 µM (active), respectively.

For `CCNc1nc(NCC)n2c(SCc3ccc(F)cc3)nnc2n1`, in assay [4], the EC50 was > 53 µM (inactive). Moreover, in assay [5], the IC50 was > 47.1 µM (inactive).

As for `COc1cc(OC)cc(C(=O)NNC(=O)Cc2ccc(OC)c(S(=O)(=O)N3CCOCC3)c2)c1`, the EC50 in [2] is > 150 µM (inconclusive); in [3], > 38 µM (not active).

For the compound `CCOc1ccc(/C=N/NC(=O)C(C)N(c2ccc(OC)cc2)S(C)(=O)=O)cc1OCC` (centres undefined), the EC50 in [4] was > 53 µM (inactive). The IC50 in assay [5] is > 47.1 µM (inactive).

On to `COc1cccc(C(=O)/C=C/c2ccc(N3CCCCC3)c([N+](=O)[O-])c2)c1`, for which the AC50 in assay [1] is 7.86 µM (active).

Regarding `c1ccc(N(c2ccccc2)c2nc(N3CCCC3)nc(-n3ccnc3)n2)cc1`, the EC50 was > 150 µM (not active) on Streptokinase A; 5.49 µM (active) with Streptococcus; > 60 µM (not active) in assay [6]; 1.84 µM (active) in assay [7]; 5.55 µM (active) in assay [8]. Besides, the AC50 in assay [1] was 5.16 µM (active).

For the compound `COc1ccccc1-c1nccc(NCc2cccnc2)n1`, the AC50 on Cytochrome P450 2D6 was 20 µM (inconclusive).

Take `Cc1cc(C)n2nc(-c3sccc3-n3cccc3)cc2n1`: the half-maximal activity concentration (AC50) at Cytochrome P450 3A4 is 3.55 µM (inconclusive); at Cytochrome P450 2D6, 35.5 µM (inconclusive).

For `CCOC(=O)c1ccc(NC(=O)c2ccc(CO)c(C(=O)NC3CCN(C(=O)OCC)CC3)c2)cc1`, the EC50 in assay [2] is > 160 µM (inactive); in [3], > 38 µM (not active).

For `CCCCCCCCCC(=O)NNC(=O)c1c(O)c2ccccc2n(CC)c1=O`, the EC50 in assay [2] was > 160 µM (inactive); in assay [3] it was > 38 µM (not active).

Consider `CCOc1ccccc1NC(=O)COC(=O)C1COc2ccccc2O1` (centres undefined), for which the EC50 in assay [4] was > 53 µM (inactive). For the same compound, the IC50 in assay [5] is > 47.1 µM (inactive).

On to `Clc1ccc(Sc2ccc(/C=N/n3cnnc3)o2)cc1`, for which, at Cytochrome P450 2D6, the AC50 is 15.8 µM (inconclusive).

In the case of `CCCCn1c(CN2CCN(C(=O)OCC)CC2)nc2c1c(=O)n(C)c(=O)n2C`, the EC50 in assay [2] is > 150 µM (inactive); in [3] it was > 38 µM (not active).

Consider `O=C1NC(Cc2c[nH]c3ccccc23)C(=O)N1Cc1cccc2ccccc12` (centres undefined), for which, in assay [4], the EC50 is > 53 µM (inactive). Also, the IC50 in [5] was > 47.1 µM (inactive).

Regarding `COC(=O)N1CCC2(CCCN(Cc3nccs3)C2)CC1`, the figures for the AC50 at Cytochrome P450 3A4 and on Cytochrome P450 2D6 were 15.8 µM (inconclusive) and 12.6 µM (inconclusive), respectively.

In the case of `COc1ccc(C(=O)NCC2(c3ccccc3)CCCC2)c(OC)c1`, in [1], the AC50 was 1.22 µM (active).

As to `Cc1c(/C=C2\SC(=O)N(CC(=O)Nc3ccc4c(c3)OCO4)C2=O)c2ccccc2n1C`, the AC50 on Cytochrome P450 3A4 was 0.2 µM (inconclusive); on Cytochrome P450 2D6, 2.82 µM (inconclusive); on Cytochrome P450 1A2 it was 3.16 µM (inconclusive).

With `CS(=O)(=O)Nc1ccc(Nc2c3ccccc3nc3ccccc23)cc1`, the AC50 on Cytochrome P450 2D6 was 3.16 µM (inconclusive); on Cytochrome P450 2C9 it was 6.31 µM (inconclusive).

`CCOC(=O)C1CCN(c2cc3c(cc2NC(=O)c2cc(OC)ccc2Br)n(C)c(=O)n3C)CC1`: the EC50 in assay [4] is > 53 µM (inactive). In addition, the IC50 in assay [5] was > 47.1 µM (inactive).

In the case of `COC(=O)c1sccc1NS(=O)(=O)c1ccccc1`, in assay [4], the EC50 is > 53 µM (inactive). The IC50 in assay [5] was > 47.1 µM (inactive).

On to `CC[C@H](NC(C)C)[C@H](O)c1ccc(O)c2[nH]c(=O)ccc12` [PROCATEROL], for which the AC50 at Cytochrome P450 2D6 is 31.6 µM (inconclusive); on Cytochrome P450 1A2, 39.8 µM (inconclusive).

Consider `O=C1C(Cl)=C(Sc2nnc3c4ccccc4c4ccccc4c3n2)C(=O)c2ccccc21`, for which the results for the AC50 at Cytochrome P450 3A4, on Cytochrome P450 2D6 and at Cytochrome P450 2C9 were 5.01 µM (inconclusive), 3.98 µM (inconclusive) and 3.98 µM (inconclusive), respectively.

For the compound `O=C(O)CN1CCN(Cc2ccccc2)C1=O`, the AC50 at Cytochrome P450 2D6 is 15.8 µM (inconclusive); on Cytochrome P450 2C9, 11.2 µM (inconclusive).

For the compound `O=S(=O)(Nc1ccc2c(c1)CCC2)c1cccs1`, the EC50 in [4] is > 53 µM (inactive). Moreover, in assay [5], the IC50 is > 47.1 µM (inactive).

`Cc1ccc(C(=O)NC(=C(Cl)Cl)S(=O)(=O)c2ccccc2)cc1`: the AC50 in [1] was 3.29 µM (active).

Take `COc1ccc(S(=O)(=O)Nc2nc3ccccc3nc2NCC2CCCO2)cc1` (centres undefined): the EC50 in assay [4] was > 53 µM (inactive). The IC50 in assay [5] is > 47.1 µM (inactive).

As for `C=C1C(C(=O)Nc2ccccc2)C1C(=O)Nc1ccccc1` (centres undefined), in assay [4], the EC50 was > 53 µM (inactive). Further, the IC50 in assay [5] was > 47.1 µM (inactive).

As to `COc1ccccc1N1CCN(Cc2cc(=O)n3ccsc3n2)CC1`, at Cytochrome P450 2D6, the AC50 was 22.4 µM (inconclusive).

`COC(=O)c1ccc(CSc2nc3cc(Cl)ccc3s2)o1`: the AC50 on Cytochrome P450 3A4 was 25.1 µM (inconclusive); at Cytochrome P450 2D6 it was 20 µM (inconclusive).

Source of the values: ChEMBL document CHEMBL1201862, “PubChem BioAssay data set” (2004).
